Source: ChEMBL document CHEMBL3621110, “Discovery and Development of the Aryl O-Sulfamate Pharmacophore for Oncology and Women's Health” (J Med Chem, 2015)
Each block holds one compound with its values, some of them ahead of it.

Assays:
[1] = species: Rattus norvegicus; assay: animal or person; type: functional; conditions: Wistar, po, 3 h
[2] = species: Rattus norvegicus; assay: animal or person; type: functional; conditions: Wistar, Liver, po
[3] = biological target: T1, Aromatase (Homo sapiens, UniProt P11511)
T1 sequence (P11511 whole entry): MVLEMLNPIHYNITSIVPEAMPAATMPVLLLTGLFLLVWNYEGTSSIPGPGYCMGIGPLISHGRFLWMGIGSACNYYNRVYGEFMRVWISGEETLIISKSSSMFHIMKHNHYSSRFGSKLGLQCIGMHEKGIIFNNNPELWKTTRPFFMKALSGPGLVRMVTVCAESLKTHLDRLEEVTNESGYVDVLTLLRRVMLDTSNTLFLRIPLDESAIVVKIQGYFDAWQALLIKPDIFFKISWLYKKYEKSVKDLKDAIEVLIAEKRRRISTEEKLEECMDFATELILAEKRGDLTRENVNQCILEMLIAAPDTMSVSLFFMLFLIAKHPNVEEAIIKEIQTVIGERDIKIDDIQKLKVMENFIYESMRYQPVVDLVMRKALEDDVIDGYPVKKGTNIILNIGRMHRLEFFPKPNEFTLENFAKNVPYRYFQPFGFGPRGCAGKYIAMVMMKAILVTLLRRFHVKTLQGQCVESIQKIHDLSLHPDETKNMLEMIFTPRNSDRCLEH

[4] = tested on: MCF7; assay: animal or person; type: functional, Homo sapiens; conditions: Mus musculus, MCF7, po, 1176 h
[5] = species: Homo sapiens; type: functional; conditions: at 80 mg/day
[6] = biological target: T2, Steryl-sulfatase (Homo sapiens, UniProt P08842); parameters: species or system Placenta, Microsome
T2 sequence (P08842 whole entry): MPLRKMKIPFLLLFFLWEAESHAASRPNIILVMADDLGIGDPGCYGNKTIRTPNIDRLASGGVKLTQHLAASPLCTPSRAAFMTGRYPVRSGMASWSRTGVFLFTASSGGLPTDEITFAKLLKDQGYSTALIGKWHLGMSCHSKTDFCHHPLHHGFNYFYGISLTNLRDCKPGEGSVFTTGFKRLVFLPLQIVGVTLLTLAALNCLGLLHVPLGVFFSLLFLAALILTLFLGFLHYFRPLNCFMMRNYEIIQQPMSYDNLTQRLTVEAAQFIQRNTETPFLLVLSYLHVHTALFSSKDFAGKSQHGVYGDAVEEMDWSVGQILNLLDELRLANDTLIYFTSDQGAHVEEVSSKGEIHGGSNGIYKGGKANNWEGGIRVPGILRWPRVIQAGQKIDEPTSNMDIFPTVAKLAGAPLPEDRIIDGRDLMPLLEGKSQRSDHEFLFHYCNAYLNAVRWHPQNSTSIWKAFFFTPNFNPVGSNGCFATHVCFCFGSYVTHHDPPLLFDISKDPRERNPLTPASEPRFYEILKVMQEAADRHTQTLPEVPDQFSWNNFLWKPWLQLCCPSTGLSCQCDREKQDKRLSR

[7] = species: Homo sapiens; type: functional; conditions: at 5 mg/day
[8] = in vivo; conditions: Wistar, rat, po, 10 mg/kg
[9] = tested on: MCF7; assay: animal or person; type: functional, Homo sapiens; conditions: Mus musculus, MCF7, po, 1176 h; remark: listed apart in the source
[10] = tested on: MCF7; assay: animal or person; type: functional, Homo sapiens; conditions: Mus musculus, MCF7, po, 1176 h; remark: listed apart in the source
[11] = biological target: T2, Steryl-sulfatase; type: microsomes, Placenta, Microsome
[12] = tested on: MCF7; assay: animal or person; type: functional, Homo sapiens; conditions: Mus musculus, MCF7, po, 1176 h; remark: listed apart in the source
[13] = species: Rattus norvegicus; assay: animal or person; type: functional; conditions: Liver, po, 120 h
[14] = tested on: MDA-MB-231; assay: cells; type: functional; conditions: Homo sapiens
[15] = tested on: MDA-MB-231; assay: animal or person; type: functional, Homo sapiens; conditions: Mus musculus, MDA-MB-231, po, 840 h
[16] = tested on: DU-145; assay: cells; type: functional; conditions: Homo sapiens
[17] = biological target: T2, Steryl-sulfatase
[18] = biological target: T3, Estrogen receptor (Homo sapiens, UniProt P03372)
T3 sequence (P03372 whole entry): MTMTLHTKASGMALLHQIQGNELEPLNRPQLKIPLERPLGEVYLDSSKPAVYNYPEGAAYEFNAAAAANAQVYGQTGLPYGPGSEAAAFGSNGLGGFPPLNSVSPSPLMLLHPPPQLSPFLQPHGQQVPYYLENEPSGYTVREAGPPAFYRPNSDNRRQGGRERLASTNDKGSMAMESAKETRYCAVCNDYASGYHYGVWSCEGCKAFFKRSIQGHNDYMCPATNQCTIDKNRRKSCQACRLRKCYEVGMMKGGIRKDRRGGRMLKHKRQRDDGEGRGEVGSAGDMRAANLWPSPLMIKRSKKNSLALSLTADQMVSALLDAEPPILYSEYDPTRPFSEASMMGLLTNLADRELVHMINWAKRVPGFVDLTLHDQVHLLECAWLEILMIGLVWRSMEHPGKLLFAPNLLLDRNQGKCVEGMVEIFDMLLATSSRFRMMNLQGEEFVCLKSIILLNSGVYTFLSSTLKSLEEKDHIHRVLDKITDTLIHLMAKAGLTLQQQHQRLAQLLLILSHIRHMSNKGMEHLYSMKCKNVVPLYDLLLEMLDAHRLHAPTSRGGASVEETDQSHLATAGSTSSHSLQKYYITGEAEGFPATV

[19] = biological target: T2, Steryl-sulfatase; type: cell-based, HEK293
[20] = tested on: DU-145; assay: cells; type: functional; conditions: Homo sapiens, DU-145, 96 h
[21] = tested on: MDA-MB-231; assay: cells; type: functional; conditions: Homo sapiens, MDA-MB-231, 96 h
[22] = biological target: Carbonic anhydrase 2 (Homo sapiens, UniProt P00918)
[23] = species: Rattus norvegicus; assay: animal or person; type: functional; conditions: Wistar, Liver, po, 24 h
[24] = species: Rattus norvegicus; assay: animal or person; type: functional; conditions: Wistar, Liver, po, 24 h; remark: listed apart in the source
[25] = species: Rattus norvegicus; assay: animal or person; type: functional; conditions: Liver, po, 2 h
[26] = species: Homo sapiens; type: functional
[27] = species: Rattus norvegicus; assay: animal or person; type: functional; conditions: Wistar, Liver, sc, 168 h
[28] = species: Homo sapiens; type: functional; remark: listed apart in the source
[29] = species: Rattus norvegicus; assay: animal or person; type: functional; conditions: po, 2 h
[30] = species: Rattus norvegicus; assay: animal or person; type: functional; conditions: po, 2 h; remark: listed apart in the source
[31] = species: Rattus norvegicus; assay: animal or person; type: functional; conditions: Wistar, Liver, sc, 168 h; remark: listed apart in the source
[32] = species: Homo sapiens; type: functional; remark: listed apart in the source
[33] = species: Rattus norvegicus; assay: animal or person; type: functional; conditions: po, 2 h; remark: listed apart in the source
[34] = species: Homo sapiens; type: functional; remark: listed apart in the source
[35] = tested on: MCF7; assay: cells; type: functional; conditions: Homo sapiens
[36] = species: Rattus norvegicus; assay: animal or person; type: functional; conditions: Liver, po, 2 h; remark: listed apart in the source
[37] = species: Rattus norvegicus; assay: animal or person; type: functional; conditions: Liver, po, 2 h; remark: listed apart in the source

SMILES: NS(=O)(=O)Oc1ccc2c(c1)OC(=O)C1CCCCCC21 (configuration not stated)
inhibition in vivo at 20 mg/kg [4]: 79% | inhibition (INH) [5]: >=95% | IC50 [6]: 8 nM | inhibition (INH) [7]: >=95% | bioavailability [8]: 95% | inhibition in vivo at 20 mg/kg [9]: 39%

SMILES: CCCN1C(=O)C[C@H]2[C@@H]3CCc4cc(OS(N)(=O)=O)ccc4[C@H]3CC[C@]2(C)C1=O
inhibition in vivo at 10 mg/kg [10]: 56% | IC50 [11]: 1 nM | inhibition in vivo at 10 mg/kg [12]: 39% | inhibition in vivo at 10 mg/kg/day [13]: 99%

SMILES: CCc1cc2c(cc1OS(N)(=O)=O)CC[C@@H]1[C@@H]2CC[C@]2(C)[C@@H](OS(N)(=O)=O)CC[C@@H]12
Ki [22]: 232 nM

SMILES: NS(=O)(=O)Oc1ccc(C(=O)c2ccc(OS(N)(=O)=O)cc2)cc1
inhibition in vivo at 10 mg/kg [23]: 93% | inhibition in vivo at 1 mg/kg [24]: 84%

SMILES: C[C@]12CC[C@@H]3c4ccc(OS(N)(=O)=O)cc4CC[C@H]3[C@@H]1CCC2=O [EMATE]
inhibition in vivo at 20 mg/kg [25]: 98% | inhibition (INH) [26]: 72% | inhibition in vivo at 0.1 mg/kg [27]: 87% | inhibition (INH) [28]: 34% | inhibition in vivo at 20 mg/kg [29]: 98% | inhibition in vivo at 40 mg/kg [30]: 98% | inhibition in vivo at 0.1 mg/kg [31]: 87% | inhibition (INH) [32]: 50% | inhibition in vivo at 10 mg/kg [33]: 98% | inhibition (INH) [34]: 41% | GI50 [35]: 22800 nM | inhibition in vivo at 40 mg/kg [36]: 98% | inhibition in vivo at 10 mg/kg [37]: 98%

The next lines start with results.

IC50 [3]: 0.12 nM
SMILES: N#Cc1ccc(N(Cc2ccc(Br)cc2)n2cnnc2)cc1
inhibition in vivo at 10 mg/kg [1]: 70% | inhibition in vivo at 10 mg/kg [2]: ≥ 98%

GI50 [14]: 329 nM | GI50 [16]: 297 nM
SMILES: COc1cc2c(cc1OS(N)(=O)=O)CCN(Cc1cc(OC)c(OC)c(OC)c1)C2
inhibition in vivo at 20 mg/kg/day [15]: 84%

IC50 [17]: 3000 nM
SMILES: CC(C)(C#N)c1cc(Cn2cncn2)cc(Sc2ccc(OS(N)(=O)=O)c(Cl)c2)c1

IC50 [18]: 3100 nM | IC50 [19]: 300 nM
SMILES: CCN(Cc1ccc(C(=O)N2CCc3ccc(OS(N)(=O)=O)cc3C2)cc1)Cc1ccccn1

GI50 [20]: 51 nM | GI50 [21]: 71 nM
SMILES: CCN(CC)CCOCC[C@@]1(C)CC[C@H]2[C@@H]3[C@H](C)Cc4cc(OS(N)(=O)=O)ccc4[C@H]3CC[C@@]21C
